{
  "source": "patent EP2036556A1",
  "about": "“Piperidone derivatives and medical uses thereof” (Heinrich-Pette-Institut, priority 2007, dated 2009)",
  "key": {"[1]": {"tested_on": "T. brucei brucei laboratory strain TC 221", "test": "Trypanosome assay (in vitro cytotoxicity, Alamar Blue)", "assay_type": "cell-based, Trypanosoma brucei brucei", "conditions": "for activity against trypanosomes (in words): statement of the discussion", "description": "Parasite culture: Trypomastigote forms of T. brucei brucei laboratory strain TC 221 were cultured in Baltz medium according to standard conditions.^36 In vitro cytotoxicity assays: The test compounds were dissolved in DMSO or 0.1 M NaOH. A defined number of parasites (10^4 trypanosomes per mL) were exposed in test chambers of 96-well plates to various concentrations of the test substances in a final volume of 200 µl. Positive (trypanosomes in culture medium) and negative controls (test substance without trypanosomes) were run with each plate. The plates were then incubated at 37°C in an atmosphere of 5 % CO2 for a total time period of 72 h. […] The effect of test substances was quantified in ED50 values by linear interpolation^18 of three different measurements. The activity of the test substances was measured by light absorption in an MR 700 Microplate Reader at a wavelength of 550 nm with a reference wave length of 630 nm, using the Alamar Blue®."}, "[2]": {"tested_on": "macrophage cell line J774.1", "test": "Macrophage assay (Alamar Blue cytotoxicity)", "assay_type": "cell-based", "description": "The macrophage cell line J774.1 was maintained in complete Click RPMI medium. For the experimental procedures cells were detached from the flasks with a rubber police, washed twice with PBS and suspended at 2 x 10^6 cells mL^-1 in complete Click RPMI medium. […] Following the addition of 20 µl of Alamar Blue, the plates were further incubated at similar conditions. The plates were then read 24 and 48 h later. Control experiments to examine the effect of cell density, incubation time and DMSO concentration were performed. Absorbance in the absence of compounds was set as 100 % of growth control."}, "P. falciparum": {"tested_on": "P. falciparum", "conditions": "cited from earlier work"}, "rodent malaria model": {"tested_on": "rodent malaria model", "conditions": "cited from earlier work"}, "[3]": {"tested_on": "R5-tropic HIV-1 strain BaL", "test": "HIV-1 infection experiments in PM1 cells, p24 antigen ELISA, strain BaL", "assay_type": "cell-based", "description": "(§1) HIV-1 infection experiments using the T-cell tropic (X4) strain NL4/3, the macrophage-tropic (R5) strain BaL were routinely performed using PM1 cells (virus laboratory strains and cells were obtained from the NIH AIDS Research and Reference Reagent Program). Cells were cultured in RPMI medium containing 10 % fetal calf serum (Pansystems GmbH) and antibiotics (penicillin and streptomycin). For HIV-1 infection, 5 x 10^7 cells were resuspended in 500 µl culture medium without drugs and incubated at 37 °C for 3 h with 100 ng of HIV-1 viral stocks. After infection, cells were washed twice with PBS without Ca^2+ and Mg^2+ to avoid false positive p24 antigen determination. Cells were resuspended and identical aliquots (5 x 10^5 / mL) of infected cells were further cultured in 24-well plates (triplicates) in the presence of the drugs (dissolved in DMSO) at various concentrations, or in medium with DMSO as control for the calculation of the inhibition of virus replication. Culture medium was changed and cells were splitted twice a week post-infection. Viability of the cells (as measured by Alamar Blue) and p24 antigen levels (as measured by ELISA; Innogenetics N.V.) were determined at different time points."}, "[4]": {"tested_on": "X4-tropic HIV-1 strain NL4/3", "test": "HIV-1 infection experiments in PM1 cells, p24 antigen ELISA, strain NL4/3", "assay_type": "cell-based", "conditions": "concentration of 6 µM, compared to DMSO control cultures", "description": "as §1"}, "MT-2 cells": {"tested_on": "MT-2 cells", "assay_type": "cell-based", "conditions": "human, 10 days, 10 µM", "description": "First, the subtoxic concentration of the inhibitor was determined by vitality assays. MT-2 cells were cultured for 14 days with 10, 5, 2.5 and 1.5 µM of the inhibitor as well as DMSO as a solvent control. In regular intervals, samples for determination of the vitality of the cells were taken. Vitality was tested with the alamarBlue®-Assays."}, "HTLV-I": {"tested_on": "HTLV-I", "test": "Inhibition of HTLV-I virus production in MT-2 cells (real-time PCR of gag RNA in supernatant)", "assay_type": "cell-based", "conditions": "Primate T-lymphotropic virus 1, MT2, 240 h, day 10 and 14, read-out: inhibition of virus production in relation to the solvent control", "description": "For the investigation wether the inhibition of DOHH by the compositions of the invention can influence replication of HTLV-I, the lymphoma cell line MT-2, which is latently infected by HTLV-I was used as a model system (Harada et al., 1985, Infection of HTLV-III/LAV in HTLV-I-carrying cells MT-2 and MT-4 and application in a plaque assay. Science 229, 563-566). MT-2 cells continually produce a high amount of virus particles which are secreted into the cell culture supernatant, and they grow quickly. The experimental approach is based on the comparison of the virus load of cells treated with the potential inhibitor and an untreated control. As the inhibitor was dissolved in DMSO, the same amount of this solvent was added to the control cells.\nFor investigating the influence of inhibition of DOOH on the replication of HTLV-I, as before, MT-2 cells were cultivated with the determined subtoxic concentrations of compound 11 as well as a solvent control. In regular intervals, cell vitality was determined and the RNA of the virus particles from the supernatant was isolated. After reverse transcription with a primer specific for the gag region of HTLV-I RNA, the cDNA was quantified by real-time PCR. For detection of the amplified DNA, a gag-specific probe was used. A plasmid comprising the HTLV-I provirus served as a standard. […]"}, "HIV-1": {"tested_on": "HIV-1", "test": "HIV-1 infection experiments in PM1 cells, strain not specified (BaL and/or NL4/3)", "assay_type": "cell-based", "conditions": "strain and concentration not given", "description": "as §1"}, "plasmodia": {"tested_on": "plasmodia", "conditions": "after 48 h; previous study; cited from earlier work"}, "[5]": {"conditions": "Trypanosoma brucei, strain TC 221, 10^4 trypanosomes per mL, incubated 72 h, reading at 48 h, Alamar Blue, read-out: ED50 [µM] T. brucei brucei"}, "[6]": {"conditions": "Mus musculus, J774.1 macrophages, after 48h, read-out: ED50 [µM] Macrophage after 48h"}},
  "note": "Read-outs that look alike come from different tables or passages of the source.",
  "data": [
    {"molecule": "Cc1cc(C2CCCCC2)n(O)c(=O)c1", "note": "[Ciclopiroxolamine, reference compound]", "values": [
      {"measurement": "EC50", "setting": "[1]; Trypanosoma brucei, reference substances, for comparison (title of Table 1), read-out: ED50 (T. brucei brucei)", "value": "0.62 ± 0.22", "unit": "µM"},
      {"measurement": "EC50", "setting": "[2]; Mus musculus, J774.1, reference substance, for comparison, 48 h, read-out: ED50 (macrophages, 48 h)", "value": "4.62 ± 0.97", "unit": "µM"},
      {"measurement": "IC50", "setting": "P. falciparum; chloroquine sensitive (CQS) NF54 P. falciparum strain, read-out: IC50 in vitro proliferation", "value": 8.2, "unit": "µM"},
      {"measurement": "efficacy in vivo", "setting": "rodent malaria model; rodent malaria model", "value": "ineffective in vivo"}
    ]},
    {"molecule": "C=CCN1[C@@H](c2ccc([N+](=O)[O-])cc2)C(C(=O)OCC)=C(O)C(C(=O)OCC)[C@@H]1c1ccc([N+](=O)[O-])cc1", "note": "(stereo partly drawn) [Compound 11, Diethyl (2R,6S)-1-allyl-4-hydroxy-2,6-bis(4-nitrophenyl)-1,2,3,6-tetrahydropyridine-3,5-dicarboxylate]", "values": [
      {"measurement": "EC50", "setting": "[1]; [5]", "value": "3.06 ± 0.55", "unit": "µM"},
      {"measurement": "EC50", "setting": "[2]; [6]", "value": "> 100", "unit": "µM"},
      {"measurement": "inhibition of replication of HIV-1 BaL", "setting": "[3]; PM1 cells, concentration of 5 µM, compared to DMSO control cultures", "value": "completely inhibit"},
      {"measurement": "inhibition of replication of HIV-1 NL4/3", "setting": "[4]", "value": "completely inhibit"},
      {"measurement": "death of the cells", "setting": "MT-2 cells", "value": 90, "unit": "%"},
      {"measurement": "inhibition at 2.5 µM", "setting": "HTLV-I; 2.5 µM", "value": "> 90", "unit": "%"},
      {"measurement": "inhibition at 5 µM", "setting": "HTLV-I; 5 µM", "value": "> 80", "unit": "%"}
    ]},
    {"molecule": "COC(=O)C1=C(O)C(C(=O)OC)[C@H](c2ccc([N+](=O)[O-])cc2)N(Cc2ccccc2)[C@H]1c1ccc([N+](=O)[O-])cc1", "note": "(stereo partly drawn) [Compound 12, Dimethyl (2R,6S)-1-benzyl-4-hydroxy-2,6-bis(4-nitrophenyl)-1,2,3,6-tetrahydropyridine-3,5-dicarboxylate]", "values": [
      {"measurement": "EC50", "setting": "[1]; [5]", "value": "3.01 ± 0.27", "unit": "µM"},
      {"measurement": "EC50", "setting": "[2]; [6]", "value": "18.4 ± 2.93", "unit": "µM"},
      {"measurement": "inhibition of virus replication", "setting": "HIV-1", "value": 20, "unit": "%"}
    ]},
    {"molecule": "CCOC(=O)C1=C(O)C(C(=O)OCC)[C@H](c2ccc([N+](=O)[O-])cc2)N(Cc2ccccc2)[C@H]1c1ccc([N+](=O)[O-])cc1", "note": "(stereo partly drawn) [Compound 13, Diethyl (2R,6S)-1-benzyl-4-hydroxy-2,6-bis(4-nitrophenyl)-1,2,3,6-tetrahydropyridine-3,5-dicarboxylate]", "values": [
      {"measurement": "EC50", "setting": "[1]; [5]", "value": "2.72 ± 0.51", "unit": "µM"},
      {"measurement": "EC50", "setting": "[2]; [6]", "value": "> 100", "unit": "µM"},
      {"measurement": "inhibition of virus replication", "setting": "HIV-1", "value": 20, "unit": "%"}
    ]},
    {"molecule": "COC(=O)C1=C(O)C[C@@H](c2ccccn2)N(Cc2ccc(Cl)cc2)[C@H]1c1ccccn1", "note": "[Compound 21, Methyl (2'R,6'S)-1'-(4-chlorobenzyl)-4'-hydroxy-1',2',5',6'-tetrahydro-2,2';6',2''-terpyridine-3'-carboxylate]", "values": [
      {"measurement": "EC50", "setting": "[1]; [5]", "value": "0.32 ± 0.09", "unit": "µM"},
      {"measurement": "EC50", "setting": "[2]; [6]", "value": "32.8 ± 0.49", "unit": "µM"},
      {"measurement": "activity against the plasmodia", "setting": "plasmodia", "value": "high activity"}
    ]},
    {"molecule": "C=CCN1[C@@H](c2ccccn2)C(C(=O)OC)=C(O)C[C@H]1c1ccccn1", "note": "[Compound 24, Methyl (2'R,6'S)-1'-allyl-4'-hydroxy-1',2',5',6'-tetrahydro-2,2';6',2''-terpyridine-3'-carboxylate]", "values": [
      {"measurement": "EC50", "setting": "[1]; [5]", "value": "1.08 ± 0.48", "unit": "µM"},
      {"measurement": "EC50", "setting": "[2]; [6]", "value": 35, "unit": "µM"},
      {"measurement": "activity against the plasmodia", "setting": "plasmodia", "value": "high activity"}
    ]},
    {"molecule": "CC(CN1CCC(=NOCc2c(Cl)cccc2Cl)CC1)c1ccccc1", "note": "(stereo not drawn) [Compound 49, 1-(2-Phenylpropyl)-4-oxo-piperidine O-(2,6-dichloro-benzyl)-oxime]", "values": [
      {"measurement": "EC50", "setting": "[1]; [5]", "value": "> 100", "unit": "µM"},
      {"measurement": "activity against trypanosomes (in words)", "setting": "[1]", "value": "neither the oximes 48 and 52 nor the oxime ether 49 are active against trypanosomes"},
      {"measurement": "EC50", "setting": "[2]; [6]", "value": "> 100", "unit": "µM"}
    ]},
    {"molecule": "ON=CC1CCN(CCCc2ccccc2)CC1", "note": "[Compound 52, 1-1-(3-Phenyl-propyl)-piperidine-4-carbaldehyde oxime]", "values": [
      {"measurement": "activity against trypanosomes (in words)", "setting": "[1]", "value": "neither the oximes 48 and 52 nor the oxime ether 49 are active against trypanosomes"},
      {"measurement": "EC50", "setting": "[1]; strain TC 221, 10^4 trypanosomes per mL, incubated 72 h, reading at 48 h, Alamar Blue, read-out: ED50 [µM] T. brucei brucei", "value": "> 100", "unit": "µM"},
      {"measurement": "EC50", "setting": "[2]; J774.1 macrophages, after 48h, read-out: ED50 [µM] Macrophage after 48h", "value": "> 100", "unit": "µM"}
    ]},
    {"molecule": "Cl.Clc1cccc(Cl)c1CON=CC1CCN(CCCc2ccccc2)CC1", "note": "[Compound 53, 4-[(2,6-Dichloro-benzyloxyimino)-methyl]-1-(3-phenyl-propyl)-piperidinium hydrochloride]", "values": [
      {"measurement": "EC50", "setting": "[1]; [5]", "value": "3.86 ± 1.95", "unit": "µM"},
      {"measurement": "activity against trypanosomes (in words)", "setting": "[1]", "value": "active against trypanosomes"},
      {"measurement": "EC50", "setting": "[2]; [6]", "value": "28.4 ± 5.92", "unit": "µM"},
      {"measurement": "inhibition at 10 µM", "setting": "[3]; Human immunodeficiency virus 1, HIV-1 BaL infected PM1 cells, concentration of 10 µM, read-out: virus replication inhibited", "value": 85, "unit": "%"}
    ]},
    {"molecule": "N[C@@H](Cn1ccc(=O)c(O)c1)C(=O)O", "note": "[mimosine, L-mimosine]", "values": [
      {"measurement": "IC50", "setting": "P. falciparum; chloroquine resistant (CQR) strain, read-out: IC50 antiplasmodial effect", "value": 39, "unit": "µM"},
      {"measurement": "IC50", "setting": "P. falciparum; chloroquine susceptible (CQS) strain, read-out: IC50 antiplasmodial effect", "value": 32, "unit": "µM"},
      {"measurement": "toxicity in vivo", "setting": "rodent malaria model; in vivo", "value": "toxic"}
    ]}
  ]
}
